Assay results from patent US20250170239A1, “CELLULAR REPROGRAMMING BY TARGETING THE GOLGI APPARATUS” (MUSC Foundation for Research Development, priority 2023, published 2025).

Tests used:
Pmel CD8+ T cells = test: Re-stimulation with gp100 and FACS cytokine analysis; assay type: cell-based, mouse; conditions: 0.5 mM GYY4137 3 days, re-stimulated with gp100
Text: The impact of H2S on T cell effector function was next determined. Pmel CD8+ T cells were activated and expanded with standard culture conditions or with the addition of the H2S donor and subsequently re-stimulated with gp100 cognate antigen (FIG. 14E). […] Given the importance of protein translation in maintaining a robust anti-tumor response and the repression of T cell translation that occurs in the TME (Riesenberg B. P., et al., 2022, bioRxiv, 2022.01.31.478547; Marchingo J. M., et al., 2022, Cell Mol Immunol., 19(3):303-315), it was determined if H2S influences protein translation.

Sirt1 = conditions: H2S-treated vs control T cells
Experimental: (FIG. 18C) NAD+ and nicotinamide quantification from metabolomics dataset. (FIG. 18D) SIRT1 deacetylase activity in activated Pmel T cells (means of normalized OD values). (FIGS. 18E and 18F) Pmel T cells were activated with gp100 for 3 days in the presence of vehicle, GYY4137 (0.5 mM), or GYY4137+sirt1 inhibitor EX527 (10 μM). (FIG. 18E) Nuclear and cytoplasmic protein fractions were isolated and western blot analysis was performed to determine relative expression of nuclear and cytoplasmic Foxo1 (n=3). (FIG. 18F) Expression of CD62L and CD44 analyzed by FACS (n=3). (FIG. 18G) Splenocytes from wildtype and Cbs-knockout mice+/−GYY4137 activated with anti-CD3 and anti-CD28 antibodies followed by intranuclear staining for Foxo1. (FIG. 18H) Pmel T cells activated and expanded for metabolic flux analysis. Quantification of oxygen consumption rate (OCR), spare respiratory capacity (SRC), maximal respiration, and basal respiration (n=10 experimental replicates representative of 3 separate experiments). (FIG. 18I) Pmel T cells activated and expanded to day 5 for characterization of mitochondria using FACS, quantified by MFI values for mitoFM Deep Red, TMRM, and mitoSOX dyes (n=4). […] Shown is the quantification of mean oxygen consumption rate (OCR), spare respiratory capacity (SRC), maximal respiration, and basal respiration.

## C1COCCN1.COc1ccc(P(=S)(S)N2CCOCC2)cc1 (stereo not drawn) [GYY4137]
Pmel CD8+ T cells
  Granzyme B and CD107 expression: increased levels of cytolytic molecule Granzyme B and CD107 expression
  secretion of effector cytokines TNF-α and IFN-γ: enhanced secretion of effector cytokines TNF-α, and IFN-γ
Sirt1
  Sirt1 activity: increased Sirt1 activity
